Assays:
[1] = biological target: Cyclin-dependent kinase 17 (Homo sapiens) (UniProt Q00537); test: Inhibition of PCTAIRE2 Lys2 labeling site harbouring DLKPQNLLINEKGELKLADFGLAR in human Huh-7 cells at 1 uM by KiNativ Profiling analysis relative to control; type: cell-based
[2] = biological target: Serine/threonine-protein kinase 4 (Homo sapiens) (UniProt Q13043); test: Inhibition of MST1 Lys1 labeling site harbouring ETGQIVAIKQVPVESDLQEIIK in human Huh-7 cells at 1 uM by KiNativ Profiling analysis relative to control
[3] = biological target: T1, Dual specificity mitogen-activated protein kinase kinase 6 (Homo sapiens) (UniProt P52564); test: Inhibition of MAP2K6 K2 labeling site in human Huh-7 cells at 10 uM by KiNativ Profiling analysis relative to control; type: cell-based
T1 sequence (whole entry): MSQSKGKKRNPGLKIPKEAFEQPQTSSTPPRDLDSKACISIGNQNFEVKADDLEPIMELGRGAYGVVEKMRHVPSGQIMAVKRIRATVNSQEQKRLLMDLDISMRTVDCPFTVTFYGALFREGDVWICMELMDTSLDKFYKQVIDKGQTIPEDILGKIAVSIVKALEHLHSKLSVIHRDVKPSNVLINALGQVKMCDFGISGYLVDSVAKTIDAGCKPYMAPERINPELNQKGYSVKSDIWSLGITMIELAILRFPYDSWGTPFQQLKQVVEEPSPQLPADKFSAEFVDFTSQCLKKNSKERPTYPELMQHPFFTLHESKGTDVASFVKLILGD

[4] = biological target: Interferon-induced, double-stranded RNA-activated protein kinase (Homo sapiens) (UniProt P19525); test: Inhibition of PKR K2 labeling site in human Huh-7 cells at 1 uM by KiNativ Profiling analysis relative to control; type: cell-based
Interferon-induced, double-stranded RNA-activated protein kinase (Homo sapiens), sequence (P19525 whole entry): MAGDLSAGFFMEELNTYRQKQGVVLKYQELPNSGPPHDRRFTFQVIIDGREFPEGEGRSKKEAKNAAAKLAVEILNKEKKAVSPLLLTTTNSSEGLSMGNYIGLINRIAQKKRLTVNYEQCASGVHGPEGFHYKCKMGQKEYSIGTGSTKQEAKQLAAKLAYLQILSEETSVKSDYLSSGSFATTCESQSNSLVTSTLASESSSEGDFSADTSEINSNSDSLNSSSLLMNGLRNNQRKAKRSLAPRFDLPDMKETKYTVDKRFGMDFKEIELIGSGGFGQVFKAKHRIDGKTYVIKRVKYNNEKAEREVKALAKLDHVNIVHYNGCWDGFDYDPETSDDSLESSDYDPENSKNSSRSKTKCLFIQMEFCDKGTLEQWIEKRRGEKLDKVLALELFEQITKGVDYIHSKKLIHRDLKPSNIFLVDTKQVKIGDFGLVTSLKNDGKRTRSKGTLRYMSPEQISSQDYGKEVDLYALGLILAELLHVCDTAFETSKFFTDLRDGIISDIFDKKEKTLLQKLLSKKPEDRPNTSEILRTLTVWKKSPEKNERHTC

[5] = biological target: T2, Serine/threonine-protein kinase D2 (Homo sapiens) (UniProt Q9BZL6); test: Inhibition of PRKD2 (unknown origin) at 1 uM by Ambit Kinomescan binding assay relative to control
T2 sequence (whole entry): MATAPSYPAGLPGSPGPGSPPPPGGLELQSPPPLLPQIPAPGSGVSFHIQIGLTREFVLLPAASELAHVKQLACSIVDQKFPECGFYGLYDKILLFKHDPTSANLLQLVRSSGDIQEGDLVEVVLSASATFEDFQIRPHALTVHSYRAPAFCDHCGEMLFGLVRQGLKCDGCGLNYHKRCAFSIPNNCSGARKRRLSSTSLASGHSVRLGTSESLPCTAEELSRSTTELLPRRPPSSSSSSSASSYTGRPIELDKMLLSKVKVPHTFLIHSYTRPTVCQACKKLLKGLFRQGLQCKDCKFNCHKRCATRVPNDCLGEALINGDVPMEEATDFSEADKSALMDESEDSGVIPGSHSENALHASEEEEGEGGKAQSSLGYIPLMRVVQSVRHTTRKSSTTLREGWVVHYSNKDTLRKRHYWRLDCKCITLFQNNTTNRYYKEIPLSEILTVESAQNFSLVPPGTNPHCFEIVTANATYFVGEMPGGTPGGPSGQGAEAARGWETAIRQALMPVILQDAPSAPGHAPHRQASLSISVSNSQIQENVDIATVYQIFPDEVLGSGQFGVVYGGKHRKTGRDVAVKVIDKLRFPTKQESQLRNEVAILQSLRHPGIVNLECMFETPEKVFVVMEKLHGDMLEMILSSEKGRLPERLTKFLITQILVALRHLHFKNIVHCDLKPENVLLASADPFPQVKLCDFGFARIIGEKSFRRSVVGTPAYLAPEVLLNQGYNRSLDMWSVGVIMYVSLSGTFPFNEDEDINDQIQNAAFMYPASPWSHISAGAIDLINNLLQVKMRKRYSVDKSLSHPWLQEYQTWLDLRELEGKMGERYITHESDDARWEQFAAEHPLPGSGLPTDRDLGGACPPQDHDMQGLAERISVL

[6] = biological target: Ribosomal protein S6 kinase alpha-5 (Homo sapiens) (UniProt O75582); test: Inhibition of C-terminal RPS6KA5 kinase domain 2 (unknown origin) at 1 uM by Ambit Kinomescan binding assay relative to control
Ribosomal protein S6 kinase alpha-5 (Homo sapiens), sequence (O75582 whole entry, looked up, the tested form may be a part): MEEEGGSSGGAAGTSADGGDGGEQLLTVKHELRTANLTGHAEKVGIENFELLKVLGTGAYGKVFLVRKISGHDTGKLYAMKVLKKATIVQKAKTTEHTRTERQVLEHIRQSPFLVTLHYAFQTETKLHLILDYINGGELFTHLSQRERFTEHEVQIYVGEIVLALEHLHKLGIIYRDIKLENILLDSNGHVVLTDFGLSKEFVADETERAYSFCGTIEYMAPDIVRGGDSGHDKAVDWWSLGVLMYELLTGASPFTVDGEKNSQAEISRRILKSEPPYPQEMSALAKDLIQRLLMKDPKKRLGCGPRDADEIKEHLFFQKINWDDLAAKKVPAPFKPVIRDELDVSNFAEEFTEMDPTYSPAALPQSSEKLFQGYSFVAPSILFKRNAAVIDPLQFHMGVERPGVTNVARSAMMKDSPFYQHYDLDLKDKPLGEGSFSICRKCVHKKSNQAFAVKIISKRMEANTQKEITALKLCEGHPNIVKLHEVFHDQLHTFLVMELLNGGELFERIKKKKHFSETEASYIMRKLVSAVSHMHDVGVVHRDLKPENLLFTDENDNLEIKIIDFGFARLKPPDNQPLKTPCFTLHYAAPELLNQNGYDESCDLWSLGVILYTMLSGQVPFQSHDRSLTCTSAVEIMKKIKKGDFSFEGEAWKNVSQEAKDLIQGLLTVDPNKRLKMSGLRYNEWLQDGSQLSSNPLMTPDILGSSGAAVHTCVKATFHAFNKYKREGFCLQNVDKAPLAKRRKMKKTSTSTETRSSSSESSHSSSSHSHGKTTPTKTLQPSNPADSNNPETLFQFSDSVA

[7] = biological target: Dual specificity testis-specific protein kinase 1 (Homo sapiens) (UniProt Q15569); test: Inhibition of TESK1 (unknown origin) at 1 uM by Ambit Kinomescan binding assay relative to control
[8] = biological target: Serine/threonine-protein kinase MARK1 (Homo sapiens) (UniProt Q9P0L2); test: Inhibition of MARK1 Lys2 labeling site in human A-375 cells at 5 uM by KiNativ Profiling analysis relative to control; type: cell-based
Serine/threonine-protein kinase MARK1 (Homo sapiens), sequence (Q9P0L2 whole entry, looked up): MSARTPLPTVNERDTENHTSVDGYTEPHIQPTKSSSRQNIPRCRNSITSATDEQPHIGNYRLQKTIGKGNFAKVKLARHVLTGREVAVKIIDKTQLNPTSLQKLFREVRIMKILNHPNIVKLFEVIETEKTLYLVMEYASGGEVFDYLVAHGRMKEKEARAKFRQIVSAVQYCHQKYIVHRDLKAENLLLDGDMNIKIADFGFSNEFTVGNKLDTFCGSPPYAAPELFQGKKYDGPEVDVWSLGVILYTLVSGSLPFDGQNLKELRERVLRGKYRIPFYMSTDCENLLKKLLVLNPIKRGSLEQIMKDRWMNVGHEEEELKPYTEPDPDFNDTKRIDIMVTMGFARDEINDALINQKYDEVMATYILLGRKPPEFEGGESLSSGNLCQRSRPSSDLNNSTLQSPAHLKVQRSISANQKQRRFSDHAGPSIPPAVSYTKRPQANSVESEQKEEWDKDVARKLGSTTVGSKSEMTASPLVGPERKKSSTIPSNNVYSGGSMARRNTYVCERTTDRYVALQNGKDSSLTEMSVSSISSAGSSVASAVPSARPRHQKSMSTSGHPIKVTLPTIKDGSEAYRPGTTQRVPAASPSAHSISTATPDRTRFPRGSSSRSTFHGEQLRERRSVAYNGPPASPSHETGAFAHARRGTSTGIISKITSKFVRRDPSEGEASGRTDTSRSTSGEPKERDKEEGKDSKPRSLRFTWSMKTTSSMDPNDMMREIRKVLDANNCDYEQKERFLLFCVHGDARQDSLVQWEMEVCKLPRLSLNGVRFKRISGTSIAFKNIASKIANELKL

[9] = biological target: Serine/threonine-protein kinase MARK2 (Homo sapiens) (UniProt Q7KZI7); test: Inhibition of MARK2 Lys2 labeling site harbouring FIVHRDLKAENLLLDADMNIK in human A-375 cells at 0.5 uM by KiNativ Profiling analysis relative to control; type: cell-based
Serine/threonine-protein kinase MARK2 (Homo sapiens), sequence (Q7KZI7 whole entry): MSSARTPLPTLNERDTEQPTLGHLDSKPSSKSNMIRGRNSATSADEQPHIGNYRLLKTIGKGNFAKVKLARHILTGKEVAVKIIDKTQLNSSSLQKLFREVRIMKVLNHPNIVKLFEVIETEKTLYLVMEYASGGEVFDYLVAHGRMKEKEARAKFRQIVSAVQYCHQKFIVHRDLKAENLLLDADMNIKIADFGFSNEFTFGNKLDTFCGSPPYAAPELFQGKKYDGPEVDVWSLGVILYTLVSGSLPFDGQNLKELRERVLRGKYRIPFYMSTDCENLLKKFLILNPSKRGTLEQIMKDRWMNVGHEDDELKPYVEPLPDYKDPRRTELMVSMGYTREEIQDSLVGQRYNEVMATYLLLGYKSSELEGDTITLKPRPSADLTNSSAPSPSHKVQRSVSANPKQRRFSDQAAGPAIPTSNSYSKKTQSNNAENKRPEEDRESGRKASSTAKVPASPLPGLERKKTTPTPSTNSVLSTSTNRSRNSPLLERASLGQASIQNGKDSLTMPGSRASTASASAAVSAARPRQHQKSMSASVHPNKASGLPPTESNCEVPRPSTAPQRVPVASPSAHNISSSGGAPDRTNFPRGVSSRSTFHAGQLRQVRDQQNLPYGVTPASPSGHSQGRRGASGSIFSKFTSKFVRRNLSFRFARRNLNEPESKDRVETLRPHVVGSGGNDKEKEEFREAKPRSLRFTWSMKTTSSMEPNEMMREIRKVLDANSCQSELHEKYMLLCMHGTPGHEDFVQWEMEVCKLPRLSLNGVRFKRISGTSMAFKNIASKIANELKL

[10] = biological target: 5'-AMP-activated protein kinase catalytic subunit alpha-1 (Homo sapiens) (UniProt Q13131); test: Inhibition of AMPKa1 Lys2 labeling site in human A-375 cells at 0.05 uM by KiNativ Profiling analysis relative to control; type: cell-based
5'-AMP-activated protein kinase catalytic subunit alpha-1 (Homo sapiens), sequence (Q13131 whole entry, looked up): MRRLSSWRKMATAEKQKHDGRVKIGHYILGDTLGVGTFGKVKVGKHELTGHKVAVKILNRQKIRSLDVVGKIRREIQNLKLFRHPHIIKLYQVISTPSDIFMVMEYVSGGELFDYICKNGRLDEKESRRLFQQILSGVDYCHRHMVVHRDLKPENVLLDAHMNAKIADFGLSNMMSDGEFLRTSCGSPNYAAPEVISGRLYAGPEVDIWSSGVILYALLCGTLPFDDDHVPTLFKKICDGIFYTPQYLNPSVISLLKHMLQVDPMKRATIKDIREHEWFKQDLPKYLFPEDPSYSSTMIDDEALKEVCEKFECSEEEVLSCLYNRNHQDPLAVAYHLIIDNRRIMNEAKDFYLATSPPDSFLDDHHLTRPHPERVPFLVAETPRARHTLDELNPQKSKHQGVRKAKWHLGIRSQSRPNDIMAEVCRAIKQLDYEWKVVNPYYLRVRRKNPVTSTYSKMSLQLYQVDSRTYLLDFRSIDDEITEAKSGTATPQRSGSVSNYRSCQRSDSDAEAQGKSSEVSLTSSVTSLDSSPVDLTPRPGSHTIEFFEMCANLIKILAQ

[11] = biological target: Fibroblast growth factor receptor 4 (Homo sapiens) (UniProt P22455); test: Inhibition of FGFR4 (unknown origin) at 1 uM by Ambit Kinomescan binding assay relative to control; values are per cent of control
Fibroblast growth factor receptor 4 (Homo sapiens), sequence (P22455 22-802 limits assumed): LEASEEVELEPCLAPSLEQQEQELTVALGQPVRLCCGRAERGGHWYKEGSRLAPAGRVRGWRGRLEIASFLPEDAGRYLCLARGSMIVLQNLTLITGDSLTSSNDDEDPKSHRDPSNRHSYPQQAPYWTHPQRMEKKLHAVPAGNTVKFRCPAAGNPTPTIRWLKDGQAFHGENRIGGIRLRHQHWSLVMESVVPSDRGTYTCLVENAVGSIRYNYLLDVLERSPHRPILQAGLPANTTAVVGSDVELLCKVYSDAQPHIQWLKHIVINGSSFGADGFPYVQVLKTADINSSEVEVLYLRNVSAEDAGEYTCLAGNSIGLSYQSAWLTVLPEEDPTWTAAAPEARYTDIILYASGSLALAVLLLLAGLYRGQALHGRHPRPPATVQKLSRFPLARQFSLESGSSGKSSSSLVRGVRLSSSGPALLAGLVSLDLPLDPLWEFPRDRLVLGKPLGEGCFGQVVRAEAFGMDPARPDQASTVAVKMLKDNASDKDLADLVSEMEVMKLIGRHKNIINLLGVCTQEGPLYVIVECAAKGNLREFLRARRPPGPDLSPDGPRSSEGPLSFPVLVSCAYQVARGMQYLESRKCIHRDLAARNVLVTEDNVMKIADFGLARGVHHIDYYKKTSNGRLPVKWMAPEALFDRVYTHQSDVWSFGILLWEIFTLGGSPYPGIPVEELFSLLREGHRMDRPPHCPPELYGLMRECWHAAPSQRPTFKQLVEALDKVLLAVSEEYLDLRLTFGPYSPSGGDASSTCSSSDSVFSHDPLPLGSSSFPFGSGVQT

Cyclin-dependent kinase 17 (Homo sapiens), sequence (Q00537 whole entry, looked up): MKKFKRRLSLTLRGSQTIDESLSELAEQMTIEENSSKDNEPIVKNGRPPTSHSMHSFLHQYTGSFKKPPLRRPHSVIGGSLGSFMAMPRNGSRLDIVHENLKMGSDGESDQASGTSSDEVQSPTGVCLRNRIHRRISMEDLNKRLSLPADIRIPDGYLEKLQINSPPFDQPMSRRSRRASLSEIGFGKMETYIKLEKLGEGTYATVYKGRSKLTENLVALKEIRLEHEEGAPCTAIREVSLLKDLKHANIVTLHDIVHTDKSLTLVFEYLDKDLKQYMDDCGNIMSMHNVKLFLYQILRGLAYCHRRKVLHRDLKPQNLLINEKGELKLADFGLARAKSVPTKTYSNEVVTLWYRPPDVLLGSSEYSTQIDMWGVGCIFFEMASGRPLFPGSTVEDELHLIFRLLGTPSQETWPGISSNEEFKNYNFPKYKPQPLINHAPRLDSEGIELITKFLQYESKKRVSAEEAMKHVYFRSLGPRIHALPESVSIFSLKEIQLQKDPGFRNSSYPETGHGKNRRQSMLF

CNc1cc(Oc2cc(C(=O)Nc3cc(N4CCN(C)CC4)cc(C(F)(F)F)c3)ccc2C)ncn1
inhibition [1]: -9.1% | inhibition [2]: 8.9%

CCN1CCN(Cc2ccc(NC(=O)c3ccc(C)c(Oc4ccnc5[nH]ccc45)c3)cc2C(F)(F)F)CC1
inhibition [3]: 19.3% | inhibition [4]: 4%

CCN1CCN(Cc2ccc(NC(=O)c3ccc(C)c(/C=C/c4cnc5[nH]ccc5c4OC)c3)cc2C(F)(F)F)CC1
inhibition [5]: 81% | inhibition [6]: 100% | inhibition [7]: 100% | inhibition [8]: 13% | inhibition [9]: 2.9% | inhibition [10]: 7.3% | residual activity [11]: 8.1%

From ChEMBL document CHEMBL5696442, “Discovery of type II inhibitors of TGFβ-activated kinase 1 (TAK1) and mitogen-activated protein kinase kinase kinase kinase 2 (MAP4K2)” (J Med Chem, 2015)
